In ChEMBL document CHEMBL3727356, “Therapeutic compounds and compositions” (2014):

What was measured:
Pyruvate kinase PKLR [1] = target: Pyruvate kinase PKLR (Homo sapiens, UniProt P30613, R510Q); assay: Activation of PKR R510Q mutant (unknown origin) incubated for 60 mins in presence of ADP, PEP and NADH by Spectraax microplate reader based assay
Pyruvate kinase PKLR [2] = target: Pyruvate kinase PKLR (Homo sapiens, UniProt P30613, R532W); assay: Activation of PKR R532W mutant (unknown origin) incubated for 60 mins in presence of ADP, PEP and NADH by Spectraax microplate reader based assay
Pyruvate kinase PKLR (Homo sapiens, UniProt P30613, R532W), sequence (P30613 whole entry R532W): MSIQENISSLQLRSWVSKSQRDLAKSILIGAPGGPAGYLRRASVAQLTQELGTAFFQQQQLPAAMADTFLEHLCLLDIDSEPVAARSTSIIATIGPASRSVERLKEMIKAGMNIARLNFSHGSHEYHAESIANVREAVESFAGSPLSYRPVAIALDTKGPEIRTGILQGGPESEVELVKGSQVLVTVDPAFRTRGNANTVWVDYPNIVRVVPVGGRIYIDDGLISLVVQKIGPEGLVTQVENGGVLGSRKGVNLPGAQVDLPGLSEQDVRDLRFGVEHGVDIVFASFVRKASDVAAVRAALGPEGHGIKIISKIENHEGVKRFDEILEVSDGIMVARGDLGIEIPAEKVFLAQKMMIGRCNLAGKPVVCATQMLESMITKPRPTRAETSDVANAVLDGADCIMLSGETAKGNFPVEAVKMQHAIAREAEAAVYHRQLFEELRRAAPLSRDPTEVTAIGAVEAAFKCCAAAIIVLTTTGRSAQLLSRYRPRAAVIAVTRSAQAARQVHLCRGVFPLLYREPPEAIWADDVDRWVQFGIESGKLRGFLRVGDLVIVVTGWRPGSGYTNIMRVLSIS

Pyruvate kinase PKLR [3] = target: T1, Pyruvate kinase PKLR (Homo sapiens, UniProt P30613); assay: Activation of wild type PKR (unknown origin) incubated for 60 mins in presence of ADP, PEP and NADH by Spectraax microplate reader based assay
T1 sequence (P30613 whole entry): as the sequence (P30613 whole entry R532W) above, with W532R counted along it

Pyruvate kinase PKLR [4] = target: T1, Pyruvate kinase PKLR; assay: Activation of wild type PKR (unknown origin) by cell based assay

Pyruvate kinase PKLR (Homo sapiens, UniProt P30613, R510Q), sequence (P30613 whole entry R510Q): as the sequence (P30613 whole entry R532W) above, with R510Q, W532R counted along it

SMILES	AC50 (Pyruvate kinase PKLR [1]) [µM]	AC50 (Pyruvate kinase PKLR [2]) [nM]	AC50 (Pyruvate kinase PKLR [3]) [nM]	AC50 (Pyruvate kinase PKLR [4]) [nM]
COc1cccnc1C1(O)CCN(C(=O)c2ccc(NS(=O)(=O)c3cccc4cccnc34)cc2)CC1	> 10			
O=C(c1ccc(NS(=O)(=O)c2cccc3scnc23)cc1)N1CCC(O)(/C=C/CC(F)(F)F)CC1	< 0.1	< 100	< 100	
O=C1NCCC1CC1(O)CCN(C(=O)c2ccc(NS(=O)(=O)c3cccc4nccnc34)cc2)CC1 (centres undefined)	> 10			
CS(=O)(=O)CCC1(O)CCN(C(=O)c2ccc(NS(=O)(=O)c3cccc4nccnc34)cc2)CC1	> 10			
O=C(c1ccc(NS(=O)(=O)c2c(F)ccc3ncsc23)cc1)N1CCC(O)(c2ccccc2Cl)CC1	> 10			
O=C(c1ccc(NS(=O)(=O)c2cccc3cccnc23)cc1)N1CCC(C(=O)O)(c2ccccc2)CC1	> 10	> 10000	> 10000	
CC(F)(F)CCC1(O)CCN(C(=O)c2ccc(NS(=O)(=O)c3cc(F)cc4sc(N)nc34)cc2)CC1	< 0.1	< 100	< 100	
O=C(c1ccc(NS(=O)(=O)c2cccc3cccnc23)nc1)N1CCC(O)(c2ccccc2)CC1	> 10			
O=C(c1ccc(NS(=O)(=O)c2cccc3snnc23)cc1)N1CCC(O)(c2ccccc2Cl)CC1	> 10			
O=C(c1ccc(NS(=O)(=O)c2cccc(OC(F)(F)F)c2)cc1)N1CCC(O)(Cc2ccccc2)CC1	> 10			
O=C(c1ccc(NS(=O)(=O)c2cccc3c(O)ncnc23)cc1)N1CCC(O)(/C=C/CC(F)(F)F)CC1	< 0.1		< 100	
O=C(c1ccc(NS(=O)(=O)c2cccc3cccnc23)cc1)N1CCC(O)(c2ccccc2OC(F)(F)F)CC1	< 0.1	< 100	< 100	
CC(CC1(O)CCN(C(=O)c2ccc(NS(=O)(=O)c3cccc4c(O)ncnc34)cc2)CC1)C(F)(F)F (centres undefined)	< 0.1	< 100	< 100	
CCS(=O)(=O)CC1(O)CCN(C(=O)c2ccc(NS(=O)(=O)c3cccc4scnc34)cc2)CC1	> 10			
CN1CCC(CC2(O)CCN(C(=O)c3ccc(NS(=O)(=O)c4cccc5scnc45)cc3)CC2)C1=O (centres undefined)	> 10			
Nc1nc2cc(S(=O)(=O)Nc3ccc(C(=O)N4CCC(O)(c5ccccc5Cl)CC4)cc3)c(F)cc2s1	> 10	> 10000		
CS(=O)(=O)CCC1(O)CCN(C(=O)c2ccc(NS(=O)(=O)c3cccc4scnc34)cc2)CC1	> 10	> 10000		
O=C(c1ccc(NS(=O)(=O)c2cccc3ccnnc23)cc1)N1CCC(O)(c2ccccc2Cl)CC1	> 10	> 10000		
CC(C)CC1(O)CCN(C(=O)c2ccc(NS(=O)(=O)c3cccc4[nH]cnc34)cc2)CC1	> 10	> 10000	> 10000	
Nc1nc(CC2(O)CCN(C(=O)c3ccc(NS(=O)(=O)c4cccc5scnc45)cc3)CC2)cs1	> 10			

SMILES	AC50 (Pyruvate kinase PKLR [1]) [µM]	AC50 (Pyruvate kinase PKLR [2]) [nM]	AC50 (Pyruvate kinase PKLR [3]) [nM]	AC50 (Pyruvate kinase PKLR [4]) [nM]
CCn1cc(CC2(O)CCN(C(=O)c3ccc(NS(=O)(=O)c4cccc5nccnc45)cc3)CC2)cn1	> 10			
CC(C)CC1(O)CCN(C(=O)c2ccc(NS(=O)(=O)Cc3ccccn3)cc2)CC1	> 10	> 10000	> 10000	
CC(C)CC1(O)CCN(C(=O)c2ccc(NS(=O)(=O)c3c(F)ccc4ncsc34)cc2)CC1	> 10			
CNc1nc2c(S(=O)(=O)Nc3ccc(C(=O)N4CCC(O)(c5ccccc5Cl)CC4)cc3)cccc2s1	< 0.1	< 100	< 100	
O=C(c1ccc(NS(=O)(=O)c2cccc3nccnc23)cc1)N1CCC(O)(c2ncc(Cl)s2)CC1	≥ 1.01	≤ 1000	≤ 1000	
O=C(c1ccc(NS(=O)(=O)c2cccc3c2OC(F)(F)O3)cc1)N1CCC(O)(c2ccccc2Cl)CC1	> 10			
CCS(=O)(=O)CC1(O)CCN(C(=O)c2ccc(NS(=O)(=O)c3cccc4nccnc34)cc2)CC1	> 10	≥ 1010	≥ 1010	
CC(C)CC1(O)CCN(C(=O)c2ccc(NS(=O)(=O)c3cccn4ccnc34)cc2)CC1	> 10			
COc1nc(C(=O)N2CCC(O)(c3ccccc3)CC2)ccc1NS(=O)(=O)c1cccc2cccnc12	> 10			
O=C(c1ccc(NS(=O)(=O)c2cccc3scnc23)cc1)N1CCC(O)(c2cn[nH]c2)CC1	> 10			
Cn1ccc(C2(O)CCN(C(=O)c3ccc(NS(=O)(=O)c4cccc5scnc45)cc3)CC2)n1	> 10	> 10000	> 10000	
CC(C)CC1(O)CCN(C(=O)c2ccc(NS(=O)(=O)c3ccnc4scnc34)cc2)CC1	> 10	> 10000		
O=C(c1ccc(NS(=O)(=O)c2cccc3nsnc23)cc1)N1CCC(O)(c2ccccc2)CC1	> 10			
O=C1NCCC1CC1(O)CCN(C(=O)c2ccc(NS(=O)(=O)c3cccc4scnc34)cc2)CC1 (centres undefined)	> 10			
O=C(c1ccc(N[S+]([O-])c2cccc3cccnc23)cc1)N1CCC(O)(c2ccccc2Cl)CC1 (centres undefined)	> 10			
O=C(c1ccc(NS(=O)(=O)c2cccc3ncccc23)cc1)N1CCC(O)(c2ccccc2)CC1	> 10			
CC1(O)CCN(C(=O)c2ccc(NS(=O)(=O)c3cccc4cccnc34)cc2)CC1	> 10			
CC(C)CC1(O)CCN(C(=O)c2ccc(NS(=O)(=O)c3cnc(O)c4cccnc34)cc2)CC1	> 10	> 10000		
CS(=O)(=O)c1ccccc1C1(O)CCN(C(=O)c2ccc(NS(=O)(=O)c3cccc4cccnc34)cc2)CC1		< 100	< 100	< 100
CC(C)CC1(O)CCN(C(=O)c2ccc(NS(=O)(=O)c3cncc4cccnc34)cc2)CC1		< 100	< 100	< 100

SMILES	AC50 (Pyruvate kinase PKLR [1]) [µM]	AC50 (Pyruvate kinase PKLR [2]) [nM]	AC50 (Pyruvate kinase PKLR [3]) [nM]	AC50 (Pyruvate kinase PKLR [4]) [nM]
Cn1ccc(CC2(O)CCN(C(=O)c3ccc(NS(=O)(=O)c4cccc5nccnc45)cc3)CC2)n1	> 10			
CC(C)CC1(O)CCN(C(=O)c2ccc(NS(=O)(=O)c3cccc4nccnc34)cc2OC(F)F)CC1		< 100	< 100	< 100
O=C(c1ccc(NS(=O)(=O)c2cccc3cccnc23)cc1)N1CCC(O)(c2cc(F)ccc2Cl)CC1		< 100	< 100	< 100
O=C(c1ccc(NS(=O)(=O)c2cccc3scnc23)cc1)N1CCC(O)(c2cccc(F)c2F)CC1		< 100	< 100	< 100
CC(C)CC1(OP(=O)(O)O)CCN(C(=O)c2ccc(NS(=O)(=O)c3cccc4nccnc34)cc2)CC1	> 10			
O=C(c1ccc(NS(=O)(=O)c2cccc3cccnc23)cn1)N1CCC(O)(c2ccccc2)CC1	> 10			
O=C(c1ccc(NS(=O)(=O)c2cccc3cccnc23)cc1)N1CCC(O)(Cc2cccc(F)c2F)CC1		< 100	< 100	< 100
CCn1cc(CC2(O)CCN(C(=O)c3ccc(NS(=O)(=O)c4cccc5scnc45)cc3)CC2)cn1	> 10			
CC(C)C1(O)CCN(C(=O)c2ccc(NS(=O)(=O)c3cccc4cccnc34)cc2)CC1		< 100	< 100	< 100
Cc1nc2c(S(=O)(=O)Nc3ccc(C(=O)N4CCC(O)(c5ccccc5Cl)CC4)cc3)cccc2o1		< 100	< 100	< 100
O=C(c1ccc(NS(=O)(=O)c2cccc3c(O)ncnc23)cc1)N1CCC(O)(c2cccc(F)c2F)CC1		< 100	< 100	< 100
O=C(c1ccc(NS(=O)(=O)c2cccc3cccnc23)cc1)N1CCC(O)(Cc2cccc(F)n2)CC1		< 100	< 100	< 100
O=C(c1ccc(NS(=O)(=O)c2cccc3scnc23)cc1)N1CCC(O)(c2ncc(Cl)s2)CC1	> 10			
O=C(c1ccc(NS(=O)(=O)c2cccc3cccnc23)cc1)N1CCC(O)(c2cccc(C(F)(F)F)c2)CC1		< 100	< 100	< 100
O=C(c1ccc(NS(=O)(=O)c2cccc3cccnc23)cc1)N1CCC(O)(Cc2cccnc2F)CC1		< 100	< 100	< 100
O=C(c1ccc(NS(=O)(=O)c2cccc3cccnc23)cc1)N1CCC(O)(c2cccnc2C(F)(F)F)CC1		< 100	< 100	< 100
O=C(c1ccc(NS(=O)(=O)c2cccc3cccnc23)c(F)c1F)N1CCC(O)(c2ccccc2)CC1	> 10			
O=C(c1ccc(NS(=O)(=O)c2cccc3c2OCCO3)cc1)N1CCC(O)(Cc2ccccc2)CC1		< 100	< 100	< 100
